The nature of the first data set: physchem.
Description: Dissociation constant, basic pKa of the compound by UV spectrophotometry
`O=S(=O)(O)Cc1ccc(Nc2c3ccccc3nc3ccccc23)cc1`: the pKa worked out at 7.64.
Take `O=C(O)COc1ccc(Nc2c3ccccc3nc3ccccc23)cc1`: the pKa was found to be 8.19.
Same read-out and setting: then `O=S(=O)(O)CCc1ccc(Nc2c3ccccc3nc3ccccc23)cc1`, with 7.77.
Still for that read-out and setting: then `O=C(O)c1cccc(Nc2c3ccccc3nc3ccccc23)c1`, with 7.62.
Take `O=C(O)c1ccc(Nc2c3ccccc3nc3ccccc23)cc1`: the pKa was 7.17.
Still for that read-out and setting: then `O=C(O)/C=C/c1ccc(Nc2c3ccccc3nc3ccccc23)cc1`, with 7.17; and `NC(=O)CCc1ccc(Nc2c3ccccc3nc3ccccc23)cc1`, with 7.63.
Regarding `O=C(O)CCc1ccc(Nc2c3ccccc3nc3ccccc23)cc1`, the pKa stood at 7.91.
`CS(=O)(=O)Nc1cccc(Nc2c3ccccc3nc3ccccc23)c1`: the pKa was found to be 6.85.
Still for that read-out and setting: then `Cc1cccc2c(Nc3ccc(NS(C)(=O)=O)cc3)c3ccccc3nc12`, with 7.15.
Still for that read-out and setting: the result for `NC(=O)c1ccc(Nc2c3ccccc3nc3ccccc23)cc1` reads 6.47; that for `NS(=O)(=O)c1ccc(Nc2c3ccccc3nc3ccccc23)cc1`, 6.11.
Consider `O=[N+]([O-])c1ccc(Nc2c3ccccc3nc3ccccc23)cc1`, for which the pKa stood at 5.58.
With `O=C(O)Cc1ccc(Nc2c3ccccc3nc3ccccc23)cc1`, the pKa was determined as 7.92.
Regarding `CC(=O)Nc1ccc2c(Nc3ccc(C(=O)O)cc3)c3ccccc3nc2c1`, the pKa came to 7.42.
Still for that read-out and setting: the result for `NC(=O)Cc1ccc(Nc2c3ccccc3nc3ccccc23)cc1` reads 7.43.
Molecule `NS(=O)(=O)Cc1ccc(Nc2c3ccccc3nc3ccccc23)cc1` registered a pKa of 7.05.
With `O=S(=O)(O)c1ccc(Nc2c3ccccc3nc3ccccc23)cc1`, the pKa worked out at 6.87.
The same measure, in the same setting: then `N#Cc1ccc(Cc2c3ccccc3nc3ccccc23)cc1`, with 5.93; and `COc1cc(C(=O)O)ccc1Nc1c2ccccc2nc2ccccc12`, with 7.41; and `Nc1ccc2c(Nc3ccc(C(=O)O)cc3)c3ccccc3nc2c1`, with 8.9.
The same measure, in the same setting: the result for `CS(=O)(=O)Nc1ccc(Nc2cc(N=[N+]=[N-])nc3ccccc23)cc1` reads 7.
Same read-out and setting: then `CS(=O)(=O)Nc1ccc(Nc2c3ccccc3nc3c(C(N)=O)cccc23)cc1`, with 6.12; and `O=C(O)c1ccccc1Nc1c2ccccc2nc2ccccc12`, with 7.28.
`O=C(O)Cc1cccc(Nc2c3ccccc3nc3ccccc23)c1` showed a pKa of 7.82.
`O=C(O)Cc1ccccc1Nc1c2ccccc2nc2ccccc12` had a pKa of 8.12.
Regarding `NS(=O)(=O)CCc1ccc(Nc2c3ccccc3nc3ccccc23)cc1`, the pKa was found to be 7.43.
The molecule `CC(=O)c1ccc(Cc2c3ccccc3nc3ccccc23)cc1` came in with a pKa of 6.12.
The same measure, in the same setting: the result for `Brc1ccc(Cc2c3ccccc3nc3ccccc23)cc1` reads 7; that for `Clc1ccc(Cc2c3ccccc3nc3ccccc23)cc1`, 7.06.
On to `O=S(=O)(Nc1ccc(Cc2c3ccccc3nc3ccccc23)cc1)c1ccccc1`, for which the pKa is 7.09.
Same read-out and setting: the result for `c1ccc(Cc2c3ccccc3nc3ccccc23)cc1` reads 7.46; that for `CC(=O)Nc1ccc(Cc2c3ccccc3nc3ccccc23)cc1`, 7.51.
Same read-out and setting: the result for `COC(=O)Nc1ccc(Cc2c3ccccc3nc3ccccc23)cc1` reads 7.64; that for `Cc1ccc(Cc2c3ccccc3nc3ccccc23)cc1`, 7.72; that for `CNC(=O)Nc1ccc(Cc2c3ccccc3nc3ccccc23)cc1`, 7.77.
For the molecule `COc1ccc(Cc2c3ccccc3nc3ccccc23)cc1`, the pKa is 7.94.
Consider `Nc1ccc(Cc2c3ccccc3nc3ccccc23)cc1`, for which the pKa amounted to 8.36.
On the same count and under the same terms, then `COc1cc(NS(C)(=O)=O)ccc1Cc1c2ccccc2nc2cc([N+](=O)[O-])ccc12`, with 5.72.
On to `COc1cc(NS(C)(=O)=O)ccc1Cc1c2ccc([N+](=O)[O-])cc2nc2cc([N+](=O)[O-])ccc12`, for which the pKa was found to be 3.82.
The same measure, in the same setting: then `COc1cc(NS(C)(=O)=O)ccc1Cc1c2c(nc3ccccc13)CC(=N)C=C2`, with 5.53; and `COc1cc(NS(C)(=O)=O)ccc1Cc1c2c(nc3ccccc13)C(=N)CC=C2`, with 6.09.
Same read-out and setting: then `CS(=O)(=O)Nc1ccc(Nc2c3ccccc3nc3cc(I)ccc23)cc1`, with 6.52; and `COC(=O)c1ccc(Nc2c3ccccc3nc3ccccc23)cc1`, with 6.21.
Still for that read-out and setting: the result for `CN(c1ccc(Nc2c3ccccc3nc3ccccc23)cc1)S(C)(=O)=O` reads 6.95; that for `CC(=O)Nc1ccc2c(Nc3ccc(NS(C)(=O)=O)cc3)c3ccccc3nc2c1`, 7.34.
Take `COc1cc(NS(C)(=O)=O)ccc1Nc1c2ccccc2nc2ccccc12` [AMSACRINE]: the pKa was determined as 7.43.

A short description of the next data set: physchem. This is another data set of the same source.
Description: Dissociation constant, acidic pKa of the compound by UV spectrophotometry
As for `O=C(O)c1ccc(Nc2c3ccccc3nc3ccccc23)cc1`, the pKa stood at 4.2.

Values taken from ChEMBL document CHEMBL3271983, “Potential antitumor agents. 26. Anionic congeners of the 9-anilinoacridines” (J Med Chem, 1978).
